The values that follow come from patent publication US20250121068A1, “BIFUNCTIONAL MOLECULES AS PROTEASOME STIMULATORS FOR IMPROVED TARGETED PROTEIN DEGRADATION, AND THEIR USES AS TARGETED BOOSTING DEGRADERS (TARBODS)” (BOOSTER THERAPEUTICS GMBH, priority 2021, published 2025).

The target in assay [1] is T1, a-synuclein (Homo sapiens, UniProt P37840).
T1 construct: expressed in transfected cells; host or cells: HEK293
Briefly: a-synuclein degradation in HEK293 cells (western blot). It counts as cell-based. The conditions noted are these: a-synuclein transfection 48 h, dosed 3 h at 25 μM with 50 μM cycloheximide, compared to DMSO and MO. On the procedure: After a-synuclein transfection for 48 h, the compounds were dosed for 3 h at 25 μM together with 50 μM cycloheximide, and the total a-synuclein was determined using western blot. DMSO samples were used as control (dashed line).
FIGS. 2 to 4 show the results of the functional assay for the compounds of group I, FIG. 2 based on proteasome stimulation in vitro. The biochemical assay was performed with a purified human 20S proteasome. The compounds were incubated with 20S proteasomes for 1 h, and the proteasome activity was measured with a TAS-1 probe. DMSO samples were used as control. […] The inventive compounds are better stimulators than the activator alone (MO), especially when they have a longer linker, e.g. (PEG)4-5.
A general note: In western blotting, separated proteins are transferred to a membrane and probed.

Assay [2] relates to tau. Briefly: tau degradation in HEK293 cells (western blot). The assay is classed as cell-based. The conditions noted are these: tau transfection 48 h, dosed 16 h at 25 μM with 30 μM cycloheximide, DMSO control. On the procedure:
After tau transfection for 48 h, the compounds were dosed for 16 h at 25 μM together with 30 μM cycloheximide, and total tau was determined (western blot). DMSO samples were used as control (dashed line).
The biochemical assay was performed with a purified human 20S proteasome. The compounds were incubated with 20S proteasomes for 1 h, and the proteasome activity was measured with a TAS-1 probe. DMSO samples were used as control (dashed line). The inventive compounds are better stimulators than the activator alone (MO), especially when they have a longer linker, e.g., (PEG)4-5. […] For proteasome activity in HEK293 cells, the compounds were dosed for 1.5 h, and the proteasome activity measured with Me4BodipyFLAhx3L3VS activity probe. DMSO samples were used as control (dashed line). […] Compounds were dosed for 24 h, and the viability measured with CellTiter-Glo. DMSO samples were used as control (dashed line). […] After tau transfection for 48 h, the compounds were dosed for 16 h at 25 μM together with 30 μM cycloheximide, and total tau was determined (western blot). DMSO samples were used as control (dashed line).

For `CNc1ccc(-c2nc3ccc(OCCOCCNC(=O)c4ccc(COC(Cn5ccnc5)c5ccc(Cl)cc5Cl)cc4)cc3s2)cc1` (stereo not drawn) [DS001, 4-((1-(2,4-dichlorophenyl)-2-(1H-imidazol-1-yl)ethoxy)methyl)-N-(2-(2-((2-(4-(methylamino)phenyl)benzo[d]thiazol-6-yl)oxy)ethoxy)ethyl)benzamide], the “a-synuclein degradation (total a-synuclein)” value in assay [1] is “clear improvement in degrading a-synuclein”.
Take `CNc1ccc(-c2nc3ccc(OCCOCCOCCOCCNC(=O)c4ccc(COC(Cn5ccnc5)c5ccc(Cl)cc5Cl)cc4)cc3s2)cc1` (stereo not drawn) [DS003, 4-((1-(2,4-dichlorophenyl)-2-(1H-imidazol-1-yl)ethoxy)methyl)-N-(2-(2-(2-(2-((2-(4-(methylamino)phenyl)benzo[d]thiazol-6-yl)oxy)ethoxy)ethoxy)ethoxy)ethyl)benzamide]: the “a-synuclein degradation (total a-synuclein)” value in assay [1] is recorded as “clear improvement in degrading a-synuclein”.
As to `O=C(CCc1ccc2c(c1)[nH]c1ccncc12)NCCOCCNC(=O)c1ccc(COC(Cn2ccnc2)c2ccc(Cl)cc2Cl)cc1` (stereo not drawn) [DT-001, N-(2-(2-(3-(5H-pyrido[4,3-b]indol-7-yl)propanamido)ethoxy)ethyl)-4-((1-(2,4-dichlorophenyl)-2-(1H-imidazol-1-yl)ethoxy)methyl)benzamide], in assay [2], the “tau degradation (total tau)” value was “clear tau degradation improvement”.
